Measured values: patent US7109243B2 (IRM LLC, priority 2003, dated 2006)

Key:
[1] = biological target: T1, Cathepsin K (Homo sapiens, UniProt P43235); assay: Cathepsin K inhibition assay (fluorogenic peptide substrate); selectivity ratio vs cathepsin S; format: biochemical; details: ratio of cathepsin K inhibition constant to cathepsin S inhibition constant; Table II
T1 sequence (P43235 115-329): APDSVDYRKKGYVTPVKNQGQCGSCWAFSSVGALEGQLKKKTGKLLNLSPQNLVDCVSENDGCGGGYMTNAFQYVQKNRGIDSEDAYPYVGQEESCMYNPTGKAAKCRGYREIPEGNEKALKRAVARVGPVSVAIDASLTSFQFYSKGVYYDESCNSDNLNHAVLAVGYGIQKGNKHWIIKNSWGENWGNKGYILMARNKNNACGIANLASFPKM
Method in brief: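 Inhibition constants for competitive inhibitors come from apparent values fitted to enzyme progress curves. Substrate, acetyl-Lys-His-Pro-Lys-aminocarbamoylcoumarin (40 μM final), starts the reaction; fluorescence rise read at 380 nm excitation, 450 nm emission. Selectivity ratio: other cathepsin constant over cathepsin S constant.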

[2] = biological target: Cathepsin S (Homo sapiens, UniProt P25774); assay: Cathepsin S inhibition assay (fluorogenic peptide substrate); format: biochemical; details: Table II, compounds of Formula I; read-out: Ki Cat. S
Chain of Cathepsin S (P25774 115-331, species assumed): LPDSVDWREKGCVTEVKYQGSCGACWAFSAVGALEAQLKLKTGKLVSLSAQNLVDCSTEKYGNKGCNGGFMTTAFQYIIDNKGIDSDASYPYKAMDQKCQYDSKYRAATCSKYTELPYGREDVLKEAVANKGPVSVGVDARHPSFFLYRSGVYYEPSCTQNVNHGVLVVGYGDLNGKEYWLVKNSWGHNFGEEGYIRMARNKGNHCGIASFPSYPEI
Method in brief: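 Ki values come from nonlinear fitting of inhibited hydrolysis rates, taking free and total inhibitor concentrations as equal. Rates measured as rising fluorescence at 380/450 nm after reaction start with 50 μM final acetyl-HPVK-aminocarbamoylcoumarin.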

Row | Selectivity for Cat. S over Cat. K [1] | Ki [2] [nM] | Structure (SMILES)
1 | +++ (+++, >1000) | < 100 | COc1ccc(NCCNC(=O)[C@H](CC2CCCCC2)NC(=O)c2cccc(F)c2C)cc1 [Compound 147, (S)-N-{2-Cyclohexyl-1-[2-(4-methoxy-phenylamino)-ethylcarbamoyl]-ethyl}-3-fluoro-2-methyl-benzamide]
2 | +++ (+++, >1000) | < 100 | COc1ccc(NCCNC(=O)[C@H](CC2CCCCC2)NC(=O)c2cc(C)ccc2Cl)cc1 [Compound 148, (S)-2-Chloro-N-{2-cyclohexyl-1-[2-(4-methoxy-phenylamino)-ethylcarbamoyl]-ethyl}-5-methyl-benzamide]
3 | +++ (+++, >1000) | < 100 | COc1ccc(NCCNC(=O)[C@H](CC2CCCCC2)NC(=O)c2ccc(F)c(C(F)(F)F)c2)cc1 [Compound 149, (S)-N-{2-Cyclohexyl-1-[2-(4-methoxy-phenylamino)-ethylcarbamoyl]-ethyl}-4-fluoro-3-trifluoromethyl-benzamide]
4 | + (+, >10) | < 100 | CCCc1ccc(C(=O)N[C@@H](CC2CCCCC2)C(=O)NCCNc2ccc(OC)cc2)cc1 [Compound 151, (S)-N-{2-Cyclohexyl-1-[2-(4-methoxy-phenylamino)-ethylcarbamoyl]-ethyl}-4-propyl-benzamide]
5 | ++ (++, >100) | < 100 | O=C(Cc1ccc(F)cc1)N[C@@H](CC1CCCCC1)C(=O)NCCNc1ccc(F)cc1 [Compound 152, 3-Cyclohexyl-2-(S)-[2-(4-fluoro-phenyl)-acetylamino]-N-[2-(4-fluoro-phenylamino)-ethyl]-propionamide]
6 | + (+, >10) | < 100 | COc1ccc(NCCNC(=O)[C@H](CC2CCCCC2)NC(=O)c2ccc(OC)cc2)cc1 [Compound 153, (S)-N-{2-Cyclohexyl-1-[2-(4-methoxy-phenylamino)-ethylcarbamoyl]-ethyl}-4-methoxy-benzamide]
7 | ++ (++, >100) | < 100 | COc1ccc(NCCNC(=O)[C@H](CC2CCCCC2)NC(=O)c2cc(C(F)(F)F)ccc2F)cc1 [Compound 154, (S)-N-{2-Cyclohexyl-1-[2-(4-methoxy-phenylamino)-ethylcarbamoyl]-ethyl}-2-fluoro-5-trifluoromethyl-benzamide]
8 | +++ (+++, >1000) | < 100 | COc1ccc(NCCNC(=O)[C@H](CC2CCCCC2)NC(=O)c2cccc(Cl)c2F)cc1 [Compound 155, (S)-3-Chloro-N-{2-cyclohexyl-1-[2-(4-methoxy-phenylamino)-ethylcarbamoyl]-ethyl}-2-fluoro-benzamide]
9 | +++ (+++, >1000) | < 100 | COc1ccc(NCCNC(=O)[C@H](CC2CCCCC2)NC(=O)c2cc(Cl)ccc2F)cc1 [Compound 156, (S)-5-Chloro-N-{2-cyclohexyl-1-[2-(4-methoxy-phenylamino)-ethylcarbamoyl]-ethyl}-2-fluoro-benzamide]
10 | +++ (+++, >1000) | < 100 | COc1ccc(NCCNC(=O)[C@H](CC2CCCCC2)NC(=O)c2cc(F)ccc2C)cc1 [Compound 157, (S)-N-{2-Cyclohexyl-1-[2-(4-methoxy-phenylamino)-ethylcarbamoyl]-ethyl}-5-fluoro-2-methyl-benzamide]
11 | ++ (++, >100) | < 100 | COc1ccc(NCCNC(=O)[C@H](CC2CCCCC2)NC(=O)C2(c3ccccc3)CC2)cc1 [Compound 158, (S)-1-Phenyl-cyclopropanecarboxylic acid {2-cyclohexyl-1-[2-(4-methoxy-phenylamino)-ethylcarbamoyl]-ethyl}-amide]
12 | +++ (+++, >1000) | < 100 | COc1ccc(NCCNC(=O)[C@H](CC2CCCCC2)NC(=O)CNc2ccccc2)cc1 [Compound 159, (S)-3-Cyclohexyl-N-[2-(4-methoxy-phenylamino)-ethyl]-2-(2-phenylamino-acetylamino)-propionamide]
13 | ++ (++, >100) | < 10000 | COc1ccc(NCCNC(=O)[C@H](CC2CCCCC2)NC(=O)[C@H](O)c2ccccc2)cc1 [Compound 160, 3-Cyclohexyl-2-(S)-(2-(R)-hydroxy-2-phenyl-acetylamino)-N-[2-(4-methoxy-phenylamino)-ethyl]-propionamide]
14 | ++ (++, >100) | < 100 | COc1ccc(NCCNC(=O)[C@H](CC2CCCCC2)NC(=O)c2cnn(-c3ccc(F)cc3)c2C)cc1 [Compound 161, (S)-1-(4-Fluoro-phenyl)-5-methyl-1H-pyrazole-4-carboxylic acid {2-cyclohexyl-1-[2-(4-methoxy-phenylamino)-ethylcarbamoyl]-ethyl}-amide]
15 | + (+, >10) | < 100 | COc1ccc(NCCNC(=O)[C@H](CC2CCCCC2)NC(=O)c2cnn(-c3ccc(OC)cc3)c2C)cc1 [Compound 162, (S)-1-(4-Methoxy-phenyl)-5-methyl-1H-pyrazole-4-carboxylic acid {2-cyclohexyl-1-[2-(4-methoxy-phenylamino)-ethylcarbamoyl]-ethyl}-amide]
16 | + (+, >10) | < 100 | COc1ccc(NCCNC(=O)[C@H](CC2CCCCC2)NC(=O)c2cnn(-c3ccc(Cl)cc3)c2C)cc1 [Compound 163, (S)-1-(4-Chloro-phenyl)-5-methyl-1H-pyrazole-4-carboxylic acid {2-cyclohexyl-1-[2-(4-methoxy-phenylamino)-ethylcarbamoyl]-ethyl}-amide]
17 | +++ (+++, >1000) | < 100 | CC[C@H](C(=O)N[C@@H](CC1CCCCC1)C(=O)NCCNc1ccc(OC)cc1)c1ccccc1 [Compound 164, N-{2-Cyclohexyl-1-(S)-[2-(4-methoxy-phenylamino)-ethylcarbamoyl]-ethyl}-2-(S)-phenyl-butyramide]
18 | +++ (+++, >1000) | < 100 | COc1ccc(NCCNC(=O)[C@H](CC2CCCCC2)NC(=O)c2cc(F)cc(C(F)(F)F)c2)cc1 [Compound 165, (S)-N-{2-Cyclohexyl-1-[2-(4-methoxy-phenylamino)-ethylcarbamoyl]-ethyl}-3-fluoro-5-trifluoromethyl-benzamide]
19 | +++ (+++, >1000) | < 100 | COc1ccc(NCCNC(=O)[C@H](CC2CCCCC2)NC(=O)c2cccc(C(F)(F)F)c2F)cc1 [Compound 166, (S)-N-{2-Cyclohexyl-1-[2-(4-methoxy-phenylamino)-ethylcarbamoyl]-ethyl}-2-fluoro-3-trifluoromethyl-benzamide]
20 | +++ (+++, >1000) | < 100 | COc1ccc(NCCNC(=O)[C@H](CC2CCCCC2)NC(=O)c2ccc(F)c(C)c2)cc1 [Compound 167, (S)-N-{2-Cyclohexyl-1-[2-(4-methoxy-phenylamino)-ethylcarbamoyl]-ethyl}-4-fluoro-3-methyl-benzamide]
21 | ++ (++, >100) | < 1000 | COc1ccc(NCCNC(=O)[C@H](CC2CCCCC2)NC(=O)c2ccc(C(F)(F)F)cc2F)cc1 [Compound 169, (S)-N-{2-Cyclohexyl-1-[2-(4-methoxy-phenylamino)-ethylcarbamoyl]-ethyl}-2-fluoro-4-trifluoromethyl-benzamide]
22 | + (+, >10) | < 10000 | COc1ccc(NCCNC(=O)[C@H](CC2CCCCC2)NC(=O)c2ccc(-c3ccc(Cl)cc3)cc2)cc1 [Compound 170, (S)-4′-Chloro-biphenyl-4-carboxylic acid {2-cyclohexyl-1-[2-(4-methoxy-phenylamino)-ethylcarbamoyl]-ethyl}-amide]
23 | +++ (+++, >1000) | < 100 | COc1ccc(NCCNC(=O)[C@H](CC2CCCCC2)NC(=O)c2ccc(-c3cc(Cl)cc(Cl)c3)cc2)cc1 [Compound 171, (S)-3′, 5′-Dichloro-biphenyl-4-carboxylic acid {2-cyclohexyl-1-[2-(4-methoxy-phenylamino)-ethylcarbamoyl]-ethyl}-amide]
24 | +++ (+++, >1000) | < 100 | COc1ccc(NCCNC(=O)[C@H](CC2CCCCC2)NC(=O)c2ccc(-c3cccc(OC)c3)cc2)cc1 [Compound 172, (S)-3′-Methoxy-biphenyl-4-carboxylic acid {2-cyclohexyl-1-[2-(4methoxy-phenylamino)-ethylcarbamoyl]-ethyl}-amide]
25 | + (+, >10) | < 100 | COc1ccc(NCCNC(=O)[C@H](CC2CCCCC2)NC(=O)c2ccc(-c3ccccc3OC)cc2)cc1 [Compound 174, (S)-2′-Methoxy-biphenyl-4-carboxylic acid {2-cyclohexyl-1-[2-(4-methoxy-phenylamino)-ethylcarbamoyl]-ethyl}-amide]
26 | +++ (+++, >1000) | < 100 | COc1ccc(NCCNC(=O)[C@H](CC2CCCCC2)NC(=O)c2cccc(-c3ccc(Cl)cc3)c2)cc1 [Compound 175, (S)-4′-Chloro-biphenyl-3-carboxylic acid {2-cyclohexyl-1-[2-(4-methoxy-phenylamino)-ethylcarbamoyl]-ethyl}-amide]
27 | +++ (+++, >1000) | < 100 | COc1ccc(NCCNC(=O)[C@H](CC2CCCCC2)NC(=O)c2ccc(-c3ccc4c(c3)OCO4)cc2)cc1 [Compound 176, (S)-4-Benzo[1,3]dioxol-5-yl-N-{2-cyclohexyl-1-[2-(4phenylamino)-ethylcarbamoyl]-ethyl}-benzamide]
